Measurements: patent US7919680B2, “Nucleic acids encoding anthelmintic agents and plants made therefrom” (Divergence, Inc., priority 2004, dated 2011)

Legend:
[1] = system: P. scribneri; experiment: Nematicidal activity of fatty acid methyl ester emulsions, nematode spectrum (Table 6); assay type: in vivo, Pratylenchus scribneri; settings: P. scribneri mixed stage
Method: (§1) Briefly, the indicated fatty acid emulsions were added to nematodes in wells of a 24-well plate and rapidly mixed by swirling. […] Results shown are mean % values obtained from multiple independent experiments
(§2) The Caenorhabditis elegans were mixed stage populations. Similar effects were seen on several other free-living nematode species. The Parastrongyloides trichosuri (parasite of Australian bushtail possum) were dauer-like infective 3rd stage larva. Similar effects are also seen against free-living stages. The Meloidogyne incognita and Meloidogyne javanica (root knot nematode) were 2nd stage juveniles (dauer-like infective stage). The Heterodera glycines (soybean cyst nematode) were 2nd stage juveniles (dauer-like infective stage). Finally, the Pratylenchus scribneri (corn lesion nematode) were mixed stage populations.

[2] = system: M. incognita; experiment: Nematicidal activity of fatty acid methyl ester emulsions against root knot nematode J2 larvae (Table 5); assay type: in vivo; settings: 0.1% emulsion; 48 hours incubation, counted about 24 hours after transfer to plates
Method: (§3) M. incognita and M. javanica were prepared from tomato roots. The roots were bleached and the debris was separated from the J2 larvae and eggs by filtration followed by sucrose density gradient centrifugation. Eggs were hatched over 4 days at 15° C. and the J2 larvae were collected by passage though a filter, followed by centrifugation.
(§4) Nematodes and emulsions were incubated with shaking at room temperature for 48 hours. The contents of each well were transferred to a small spot on individual NGM plates lacking bacteria. About 24 hours after the transfer to plates, worms on and off the inoculation spot were counted as not viable or viable, respectively. Worms were considered viable if they had crawled away from the inoculation spot, or if they were moving. Worms were considered non-viable if they remained at the inoculation spot.

[3] = system: M. javanica; experiment: as above; assay type: in vivo; settings: 0.1% emulsion; 48 hours incubation, counted about 24 hours after transfer to plates
Method: as §3, §4

[4] = system: H. glycines; experiment: Nematicidal activity of fatty acid methyl ester emulsions, nematode spectrum (Table 6); assay type: in vivo, Heterodera glycines; settings: H. glycines 2nd stage juveniles, head 24 hr, b171 48 hours
Method: as §1, §2

[5] = system: C. elegans; experiment: as above; assay type: in vivo, Caenorhabditis elegans; settings: C. elegans mixed stage
Method: as §1, §2

[6] = system: C. elegans; experiment: Nematicidal activity of fatty acid methyl ester emulsions against C. elegans (Table 2)
[7] = system: M. javanica; experiment: Nematicidal activity of fatty acid methyl ester emulsions, nematode spectrum (Table 6); assay type: in vivo, Meloidogyne javanica; settings: M. javanica 2nd stage juveniles, head 24 hr, b171 48 hours
Method: as §1, §2

[8] = system: M. incognita; experiment: as above; assay type: in vivo, Meloidogyne incognita; settings: M. incognita 2nd stage juveniles, head 24 hr, b171 48 hours
Method: as §1, §2

[9] = system: P. trichosuri; experiment: as above; assay type: in vivo, Parastrongyloides trichosuri; settings: P. trichosuri infective 3rd stage larva
Method: as §1, §2

[10] = system: wide spectrum of divergent nematode genera; experiment: Summary of Table 6: free-living, animal parasitic and plant parasitic nematodes; assay type: in vivo
Method: as §1

[11] = system: C. elegans; experiment: Nematicidal activity of methyl ester, salt and free fatty acid emulsions vs. C. elegans N2s (Table 3); assay type: in vivo, Caenorhabditis elegans
Source text: Nematicidal Activity of Single Fatty Acid Methyl Ester, Salt and Free Fatty Acid Emulsions Against Caenorhabditis elegans […] and Dauers

[12] = system: tomato seedlings; experiment: Phytotoxicity evaluation of fatty acid methyl esters on tomato seedlings; assay type: in vivo; settings: for phytotoxic effects on tomato seedlings: 250 μl of 1% emulsion at stem-media interface of two-week seedlings
Method: Sterilized tomato seeds were germinated in magenta jars containing Gamborg's agar media. After two weeks of growth, seedlings were treated with 250 μl of 1% fatty acid methyl ester emulsion (nonanoic acid, ricinoleic acid, ricinelaidic acid, oleic acid, or a control emulsion lacking any fatty acid), applied directly to the stem-media interface. Tomato seedlings were scored at various times after application of emulsions.

[13] = system: C. elegans dauers; experiment: Nematicidal activity of methyl ester, salt and free fatty acid emulsions vs. C. elegans dauers (Table 4); assay type: in vivo, Caenorhabditis elegans
[14] = system: C. elegans; experiment: Rescue of delta-12 fat2 RNAi feeding phenotype by fatty acid methyl esters; assay type: in vivo; settings: for rescue of the delta-12 fat2 RNAi feeding phenotype: 3 mM added to NGM media
Source text: RNAi by feeding: C. elegans can be grown on lawns of E. coli genetically engineered to produce double stranded RNA (dsRNA) designed to inhibit delta-12 fat2 expression. Briefly, E. coli were transformed with a genomic fragment of a portion of the C. elegans fat2 gene sequence, specifically a fragment 651 nucleotides long, containing the entire first exon and terminating just before the conserved intron splice junction between the first exon and first intron. This construct encodes approximately the first 217 amino acids of the C. elegans delta-12 fat2 gene. The 651 nucleotide genomic fragment was cloned into an E. coli expression vector between opposing T7 polymerase promoters. The clone was then transformed into a strain of E. coli that carries an IPTG-inducible T7 polymerase. As a control, E. coli was transformed with a gene encoding the Green Fluorescent Protein (GFP). Feeding RNAi was initiated from C. elegans eggs or from C. elegans L4s. […] The sequence of the fat2 gene is of sufficiently high complexity (i.e., unique) such that the RNAi is not likely to represent cross reactivity with other genes.
The C. elegans delta-12 fatty acid desaturase (FAT-2 protein) converts the mono-unsaturated oleic acid to the di-unsaturated fatty acid linoleic acid. The delta-12 fat2 RNAi prevents expression of the delta-12 fatty acid desaturase, which is predicted to cause a decrease in levels of linoleic acid in the nematode, leading to arrested development and death.

| Compound | Percentage of Worm Death 1 hr ([6]; 0.003% emulsion) | Percentage of Worm Death 6 hr ([6]; 0.003% emulsion) | Percentage of Worm Death 24 hr ([6]; 0.003% emulsion) | Percentage of Worm Death 1 hr ([6]; 0.1% emulsion) | Percentage of Worm Death 6 hr ([6]; 0.1% emulsion) | Percentage of Worm Death 24 hr ([6]; 0.1% emulsion) | worm death ([11]; 0.001% emulsion) [%] | worm death ([11]; 0.01% emulsion) [%] | worm death ([11]; 0.1% emulsion) [%] | worm death ([13]; 0.01% emulsion) [%] | worm death ([13]; 0.1% emulsion) [%] | also measured |
| --- | --- | --- | --- | --- | --- | --- | --- | --- | --- | --- | --- | --- |
| CCCCCC1OC1C/C=C\CCCCCCCC(=O)OC (stereo in doubt) [Vernolic Acid (C18-methyl ester), vernolic acid methyl ester] | 20% | 20% | 20% | 65% | 65% | 75% |  |  |  |  |  | % Worm Death (24 hr) ([1]; 0.01% solution): <20%; % Worm Death (24 hr) ([1]; 0.1% solution): <20%; M. incognita (% not viable) [2]: 100%; M. javanica (% not viable) [3]: 90%; % Worm Death (24 hr) ([4]; 0.001% solution): 18%; % Worm Death (24 hr) ([4]; 0.01% solution): 20%; % Worm Death (24 hr) ([4]; 0.1% solution): 30%; % Worm Death (24 hr) ([5]; 0.001% solution): 30%; % Worm Death (24 hr) ([5]; 0.01% solution): 50%; % Worm Death (24 hr) ([5]; 0.1% solution): 80%; % Worm Death (24 hr) ([7]; 0.01% solution): 60%; % Worm Death (24 hr) ([7]; 0.1% solution): 90%; % Worm Death (24 hr) ([8]; 0.01% solution): 73%; % Worm Death (24 hr) ([8]; 0.1% solution): 98%; % Worm Death (24 hr) ([9]; 0.01% solution): ~90%; % Worm Death (24 hr) ([9]; 0.1% solution): ~95% |
| CCCCCC[C@@H](O)C/C=C/CCCCCCCC(=O)OC [Re ME, ricinelaidic acid methyl ester] |  |  |  |  |  |  | 80 | 100 | 100 | 100 | 100 | % Worm Death (24 hr) ([1]; 0.01% solution): ~40%; % Worm Death (24 hr) ([1]; 0.1% solution): ~70%; % Worm Death (24 hr) ([4]; 0.001% solution): 100%; % Worm Death (24 hr) ([4]; 0.01% solution): 100%; % Worm Death (24 hr) ([4]; 0.1% solution): 100%; nematicidal activity ([10]; concentrations of 0.1% and 0.01%): strongly nematicidal; breadth of nematicidal activity ([10]; summary of Table 6): favorable nematicidal activity against a wide spectrum of divergent nematode genera; % Worm Death (24 hr) ([5]; 0.001% solution): 75%; % Worm Death (24 hr) ([5]; 0.01% solution): 100%; % Worm Death (24 hr) ([5]; 0.1% solution): 100%; phytotoxic effects on tomato seedlings [12]: low phytotoxicity; % Worm Death (24 hr) ([7]; 0.001% solution): ~60%; % Worm Death (24 hr) ([7]; 0.01% solution): 100%; % Worm Death (24 hr) ([7]; 0.1% solution): 100%; % Worm Death (24 hr) ([8]; 0.001% solution): 97%; % Worm Death (24 hr) ([8]; 0.01% solution): ~99%; % Worm Death (24 hr) ([8]; 0.1% solution): ~99%; % Worm Death (24 hr) ([9]; 0.01% solution): 100%; % Worm Death (24 hr) ([9]; 0.1% solution): 100% |
| CCCCCC[C@@H](O)C/C=C\CCCCCCCC(=O)[O-].[K+] [Potassium R, potassium salt of ricinoleic acid] |  |  |  |  |  |  | 5 | 15 | 90 | 20 | 75 |  |
| CCCCCCCC/C=C\CCCCCCCC(=O)OC [Oleic Acid (C18-methyl ester), oleic acid methyl ester] | 0-5% | 0-5% | 0-5% | 0-5% | 0-5% | 0-5% |  |  |  |  |  | rescue of the delta-12 fat2 RNAi feeding phenotype [14]: does not rescue |
| CCCCC/C=C\C/C=C\CCCCCCCC(=O)O [L free acid, linoleic acid, reference compound] |  |  |  |  |  |  | <5 | <5 | 10 | 40 | 50 |  |
| CCCCC/C=C\C/C=C\CCCCCCCC(=O)OC [Linoleic Acid (C18-methyl ester), linoleic acid methyl ester] | 0-5% | 0-5% | 0-5% | 0-5% | 0-5% | 0-5% | <5 | <5 | <5 | 20 | 40 | rescue of the delta-12 fat2 RNAi feeding phenotype [14]: partial rescue; P0 phenotype ([14]; fat2 RNAi feeding starting with L4 larvae, 3 mM fatty acid methyl ester in NGM media): Reduced egg laying |
| CCCCCC[C@@H](O)C/C=C/CCCCCCCC(=O)O [Re free acid*, ricinelaidic acid] |  |  |  |  |  |  | 40 | 98 | 100 | 75 | 75 |  |
| CCCCCC[C@@H](O)C/C=C/CCCCCCCC(=O)[O-].[Na+] [Sodium Re*, sodium salt of ricinelaidic acid] |  |  |  |  |  |  |  | 100 | 100 |  |  |  |
| CCCCCCCCC(=O)OC [Nonanoic (C9-methyl ester), pelargonic acid methyl ester] | 50% | 50% | 50% | 100% | 100% | 100% | 30 | 100 | 100 |  |  | time to almost entire bleaching and near total collapse ([12]; 250 μl of 1% emulsion): ≤ 24 h; phytotoxic effects on tomato seedlings [12]: obvious phytotoxic effects; "stun" effect ([6]; 0.003% emulsion, many nematodes recover several hours post inoculation): temporarily “stunned”; nematicidal activity ([6]; concentration of 0.1%): strongly nematicidal; onset of effect on nematode movement and death ([6]; emulsion, Table 2): almost immediate cessation of nematode movement and subsequent death |
